# Counter-ions that a name gives are not always drawn. Like-named read-outs stand apart in the source and are kept apart here.
# Target: SARS-CoV-2 3CLpro (Severe acute respiratory syndrome coronavirus 2, UniProt P0DTD1)
# Assay: biochemical
# Assay type: biochemical
# Parameters: Replicate_1 / Replicate_2 / mean / mean (LOPAC_screen_w_protease): unit not given here
# Details: for inhibition at 5 µM: 4 h
# [1] = LOPAC1280 primary screen with protease, 5 µM compound, replicate 1
# [2] = LOPAC1280 primary screen with protease, 5 µM compound, replicate 2
# [3] = read-out: Replicate_1 (LOPAC_screen_w_protease)
# [4] = read-out: Replicate_2 (LOPAC_screen_w_protease)
# [5] = sheet LOPAC_screen_w_protease, LOPAC1280 primary screen at 5 µM, with protease, mean of the two replicates, read-out: mean
# [6] = sheet LOPAC_screen_w_protease, LOPAC1280 primary screen at 5 µM, with protease, replicate 1, read-out: Replicate_1
# [7] = sheet LOPAC_screen_w_protease, LOPAC1280 primary screen at 5 µM, with protease, replicate 2, read-out: Replicate_2
# [8] = sheet LOPAC_screen_w_protease, primary screen at 5 µM, mean of two replicates
# [9] = sheet LOPAC_screen_w_protease, primary screen at 5 µM, replicate 1
# [10] = sheet LOPAC_screen_w_protease, primary screen at 5 µM, replicate 2
# [11] = LOPAC1280 primary screen with protease, 5 µM compound, mean of two replicates
# [12] = sheet LOPAC_screen_w_protease, primary screen with protease, 5 µM, mean of two replicates
# [13] = sheet LOPAC_screen_w_protease, primary screen with protease, 5 µM, replicate 1
# [14] = sheet LOPAC_screen_w_protease, primary screen with protease, 5 µM, replicate 2
structure (smiles),measurement,setting,value
CC1Cc2cc3c(cc2C(c2ccc(N)cc2)=NN1)OCO3.Cl (centres unmarked) [GYKI 52895],mean,"sheet LOPAC_screen_w_protease, LOPAC1280 primary screen with protease, 5 µM compound, mean of the two replicates",5.365
same,Replicate_1,"sheet LOPAC_screen_w_protease, LOPAC1280 primary screen with protease, 5 µM compound, replicate 1",5.021
same,Replicate_2,"sheet LOPAC_screen_w_protease, LOPAC1280 primary screen with protease, 5 µM compound, replicate 2",5.7079
Cl.NC1C=CC=C(C(=O)O)C1 (centres unmarked) [Gabaculine hydrochloride],mean (LOPAC_screen_w_protease),"LOPAC1280 primary screen with protease, 5 µM compound, mean of the two replicates",2.074
same,Replicate_1 (LOPAC_screen_w_protease),[1],1.548
same,Replicate_2 (LOPAC_screen_w_protease),[2],2.6
NCC1(CC(=O)O)CCCCC1 [Gabapentin],mean (LOPAC_screen_w_protease),,1.9821
same,inhibition at 5 µM,[3],3.94%
same,inhibition at 5 µM,[4],0.0248%
CC[N+](CC)(CC)CCOc1cccc(OCC[N+](CC)(CC)CC)c1OCC[N+](CC)(CC)CC [Gallamine triethiodide],inhibition at 5 µM,"sheet LOPAC_screen_w_protease, primary screen at 5 µM, mean of two replicates, read-out: mean (LOPAC screen with protease)",11.3%
same,inhibition at 5 µM,"sheet LOPAC_screen_w_protease, primary screen at 5 µM, replicate 1, read-out: Replicate_1 (LOPAC screen with protease)",12.1%
same,inhibition at 5 µM,"sheet LOPAC_screen_w_protease, primary screen at 5 µM, replicate 2, read-out: Replicate_2 (LOPAC screen with protease)",10.6%
Nc1nc(O)c2ncn(COC(CO)CO)c2n1 [Ganciclovir],inhibition at 5 µM,[5],0.74%
same,inhibition at 5 µM,[6],1%
same,inhibition at 5 µM,[7],0.479%
O=c1c(-c2ccc(O)cc2)coc2cc(O)cc(O)c12 [Genistein],inhibition at 5 µM,[3],2.15%
same,inhibition at 5 µM,[4],0.656%
COc1ccc(Cl)cc1C(=O)NCCc1ccc(S(=O)(=O)NC(=O)NC2CCCCC2)cc1 [Glibenclamide],inhibition at 5 µM,[5],0.733%
same,inhibition at 5 µM,[6],1.31%
same,inhibition at 5 µM,[7],0.155%
Cc1cnc(C(=O)NCCc2ccc(S(=O)(=O)NC(=O)NC3CCCCC3)cc2)cn1 [Glipizide],inhibition at 5 µM,read-out: Replicate_1 (LOPAC screen with protease),10.3%
same,inhibition at 5 µM,read-out: Replicate_2 (LOPAC screen with protease),3.17%
same,inhibition at 5 µM,read-out: mean (LOPAC screen with protease),6.73%
N=C(N)N/N=C/c1c(Cl)cccc1Cl [Guanabenz acetate],inhibition at 5 µM,"sheet LOPAC_screen_w_protease, LOPAC1280 at 5 µM, mean of two replicates, read-out: mean",1.09%
same,inhibition at 5 µM,"sheet LOPAC_screen_w_protease, LOPAC1280 at 5 µM, replicate 1, read-out: Replicate_1",2.57%
same,inhibition at 5 µM,"sheet LOPAC_screen_w_protease, LOPAC1280 at 5 µM, replicate 2, read-out: Replicate_2",-0.398%
N=C(N)NC(=O)Cc1c(Cl)cccc1Cl [Guanfacine hydrochloride],inhibition at 5 µM,"sheet LOPAC_screen_w_protease, primary screen with protease, compound at 5 µM, mean of two replicates, read-out: mean",2.62%
same,inhibition at 5 µM,"sheet LOPAC_screen_w_protease, primary screen with protease, compound at 5 µM, replicate 1, read-out: Replicate_1",3.74%
same,inhibition at 5 µM,"sheet LOPAC_screen_w_protease, primary screen with protease, compound at 5 µM, replicate 2, read-out: Replicate_2",1.51%
Br.Br.NC(N)=NCCSSCCN=C(N)N [Guanidinoethyl disulfide dihydrobromide],mean (LOPAC screen with protease),[8],36.2152
same,Replicate_1 (LOPAC screen with protease),[9],35.2116
same,Replicate_2 (LOPAC screen with protease),[10],37.2188
O=C(O)C1=CCCNC1 [Guvacine hydrochloride],inhibition at 5 µM,"sheet LOPAC_screen_w_protease, primary screen with protease, mean of two replicates, read-out: mean",2.3%
same,inhibition at 5 µM,"sheet LOPAC_screen_w_protease, primary screen with protease, replicate 1, read-out: Replicate_1",4.35%
same,inhibition at 5 µM,"sheet LOPAC_screen_w_protease, primary screen with protease, replicate 2, read-out: Replicate_2",0.255%
CC1CNCCN1S(=O)(=O)c1cccc2cnccc12.Cl.Cl (centres unmarked) [H-7 dihydrochloride],mean (LOPAC_screen_w_protease),[11],1.4971
same,Replicate_1 (LOPAC_screen_w_protease),[1],2.345
same,Replicate_2 (LOPAC_screen_w_protease),[2],0.6491
CNCCNS(=O)(=O)c1cccc2cnccc12.Cl.Cl [H-8 dihydrochloride],mean (LOPAC screen with protease),[8],10.4369
same,Replicate_1 (LOPAC screen with protease),[9],9.7701
same,Replicate_2 (LOPAC screen with protease),[10],11.1038
Cl.Cl.NCCNS(=O)(=O)c1cccc2cnccc12 [H-9 dihydrochloride],mean,[12],0.3892
same,Replicate_1,[13],0.9278
same,Replicate_2,[14],-0.1494
O=S(=O)(c1cccc2cnccc12)N1CCNCC1 [HA-100],mean,"sheet LOPAC_screen_w_protease, LOPAC1280 primary screen at 5 µM, with protease, mean of the two replicates",0.7375
same,Replicate_1,"sheet LOPAC_screen_w_protease, LOPAC1280 primary screen at 5 µM, with protease, replicate 1",1.4906
same,Replicate_2,"sheet LOPAC_screen_w_protease, LOPAC1280 primary screen at 5 µM, with protease, replicate 2",-0.01568
Cl.NC(N)=NCCNS(=O)(=O)c1cccc2cnccc12 [HA-1004 hydrochloride],mean (LOPAC_screen_w_protease),[11],1.6
same,Replicate_1 (LOPAC_screen_w_protease),[1],0.9796
same,Replicate_2 (LOPAC_screen_w_protease),[2],2.221
CCCCC#Cc1nc(N)c2ncn([C@@H]3O[C@H](C(=O)NCC)[C@@H](O)[C@H]3O)c2n1 [HE-NECA],mean,[12],0.2072
same,Replicate_1,[13],3.132
same,Replicate_2,[14],-2.7179

# Reference: PMC7587356, “High-Throughput Screening for Inhibitors of the SARS-CoV-2 Protease Using a FRET-Biosensor” (Molecules, 2020)
